Test results from ChEMBL document CHEMBL1122370 (J Med Chem, 1983).

How the values were obtained:
Mus musculus [1] = test: Average weight change in mouse after treating with 40 mg/kg dose for 7 days.; format: functional
L1210 [2] = test: In vivo anti tumor activity against L1210 leukemia in 13 mice measured as T/C values at 20 mg/kg; T/C = 13/9; format: functional, Mus musculus
L1210 [3] = test: In vivo anti tumor activity against L1210 leukemia in 5 mice measured as Increased life span at 40 mg/kg.; format: functional; settings: Mus musculus
Mus musculus [4] = test: Average weight of the mouse after treating with 40 mg/kg dose for 1 day.; format: functional; design: unit not given here
L1210 [5] = test: In vivo anti tumor activity against L1210 leukemia in 5 mice measured as Increased life span at 20 mg/kg.; format: functional; settings: Mus musculus
L1210 [6] = test: In vivo antitumor activity against L1210 leukemia in 5 mice measured as median survival range at 20 mg/kg; Value ranges from (11-17); format: functional, Mus musculus
Mus musculus [7] = test: Average weight of the mouse after treating with 20 mg/kg dose for 1 day.; format: functional; design: unit not given here
Mus musculus [8] = test: Average weight change in mouse after treating with 20 mg/kg dose for 7 days.; format: functional; design: unit not given beside the values
L1210 [9] = test: In vivo anti tumor activity against L1210 leukemia in 19 mice measured as T/C values; T/C = 19/9; format: functional, Mus musculus
L1210 [10] = test: In vivo antitumor activity against L1210 leukemia in 5 mice measured as median survival range at 40 mg/kg; Value ranges from (16-19); format: functional, Mus musculus
L1210 [11] = test: In vivo anti tumor activity against L1210 leukemia in 10 mice measured as median survival range at 60 mg/kg; Value ranges from(7-24); format: functional, Mus musculus
Mus musculus [12] = test: Average weight of the mouse after treating with 30 mg/kg dose for 1 day.; format: functional
Mus musculus [13] = test: Average weight of the mouse after treating with 30 mg/kg dose for 7 days.; format: functional
L1210 [14] = test: In vivo anti tumor activity against L1210 leukemia in 10 mice measured as median survival range at 30 mg/kg; Value ranges from(11-17).; format: functional, Mus musculus
Mus musculus [15] = test: Average weight of the mouse after treating with 15 mg/kg dose for 7 days.; format: functional
L1210 [16] = test: In vivo anti tumor activity against L1210 leukemia in 10 mice measured as Increased life span at 60 mg/kg.; format: functional; settings: Mus musculus
Mus musculus [17] = test: Average weight of the mouse after treating with 60 mg/kg dose for 7 days.; format: functional
L1210 [18] = test: In vivo antitumor activity against L1210 leukemia in 16 mice measured as T/C values; T/C = 16/9; format: functional, Mus musculus
L1210 [19] = test: In vivo anti tumor activity against L1210 leukemia in 5 mice measured as Increased life span.; format: functional, Mus musculus
Mus musculus [20] = test: Average weight of the mouse after treating with 15 mg/kg dose for 1 day.; format: functional
L1210 [21] = test: In vivo antitumor activity against L1210 leukemia in 10 mice measured as median survival range at 15 mg/kg; Value ranges from(15-20); format: functional, Mus musculus
L1210 [22] = test: In vivo anti tumor activity against L1210 leukemia in 10 mice measured as Increased life span at 30 mg/kg.; format: functional; settings: Mus musculus
Mus musculus [23] = test: Average weight of the mouse after treating with 60 mg/kg dose for 1 day.; format: functional
L1210 [24] = test: In vivo anti tumor activity against L1210 leukemia in 5 mice measured as Increased life span at 10 mg/kg.; format: functional; settings: Mus musculus
L1210 [25] = test: In vivo antitumor activity against L1210 leukemia in 5 mice measured as Increased life span at 20 mg/kg.; format: functional; settings: Mus musculus
L1210 [26] = test: In vivo antitumor activity against L1210 leukemia in 14 mice measured as T/C values(days); T/C = 14/9; format: functional, Mus musculus
L1210 [27] = test: In vivo antitumor activity against L1210 leukemia in 5 mice measured as median survival range at 10 mg/kg; Value ranges from (11-13); format: functional, Mus musculus
Mus musculus [28] = test: Average weight change in mouse after treating with 10 mg/kg dose for 7 days.; format: functional
L1210 [29] = test: In vivo antitumor activity against L1210 leukemia in 5 mice measured as median survival range at 40 mg/kg; Value ranges from (11-21); format: functional, Mus musculus
Mus musculus [30] = test: Average weight of the mouse after treating with 10 mg/kg dose for 1 day.; format: functional; design: unit not given here
L1210 [31] = test: In vivo antitumor activity against L1210 leukemia in 5 mice measured as median survival range at 20 mg/kg; Value ranges from (12-16); format: functional, Mus musculus
L1210 [32] = test: In vivo antitumor activity against L1210 leukemia in 12 mice measured as T/C values; T/C = 12/9; format: functional, Mus musculus
L1210 [33] = test: In vivo antitumor activity against L1210 leukemia in 5 mice measured as T/C values(days); T/C = 17/9; format: functional, Mus musculus
L1210 [34] = test: In vivo antitumor activity against L1210 leukemia in 5 mice measured as Increased life span at 40 mg/kg.; format: functional; settings: Mus musculus

For `CCCOC(=O)CCC(NC(=O)c1ccc(N(C)Cc2cnc3nc(N)nc(N)c3n2)cc1)C(=O)OCCC` (stereo not drawn), the Weight change (Mus musculus [1]) was 0.3, the T/C (L1210 [2]) was 13 and the ILS at 40 mg/kg (L1210 [3]) was 100%. It also gave an Average weight (Mus musculus [4]) of 21.1, an ILS at 20 mg/kg (L1210 [5]) of 44% and a Range (L1210 [6]) of 17. For the same compound, the Average weight (Mus musculus [7]) was 21.4, the Weight change (Mus musculus [8]) was 2.1 and the T/C (L1210 [9]) was 19. It also gave a Range (L1210 [10]) of 16.
For `CCCCOC(=O)CCC(NC(=O)c1ccc(N(C)Cc2cnc3nc(N)nc(N)c3n2)cc1)C(=O)OCCCC` (stereo not drawn), the Range (L1210 [11]) was 24, the Average weight (Mus musculus [12]) was 26.1 and the Weight change (Mus musculus [13]) was 4.1. The Range (L1210 [14]) was 17, the Weight change (Mus musculus [15]) was 4.2 and the ILS at 60 mg/kg (L1210 [16]) was 88%. For the same compound, the Weight change (Mus musculus [17]) was 5.1, the T/C (L1210 [18]) was 9 and the ILS (L1210 [19]) was 77%. It also gave an Average weight (Mus musculus [20]) of 25.3, a Range (L1210 [21]) of 20 and an ILS at 30 mg/kg (L1210 [22]) of 66%. The Average weight (Mus musculus [23]) was 24.9.
`CC(C)CCOC(=O)CCC(NC(=O)c1ccc(N(C)Cc2cnc3nc(N)nc(N)c3n2)cc1)C(=O)OCCC(C)C` (stereo not drawn) was tested, and the Weight change (Mus musculus [1]) was 1, the ILS at 10 mg/kg (L1210 [24]) was 33% and the Average weight (Mus musculus [4]) was 23.2. The Average weight (Mus musculus [7]) was 23.7, the ILS at 20 mg/kg (L1210 [25]) was 33% and the Weight change (Mus musculus [8]) was 1.9. For the same compound, the T/C (L1210 [26]) was 14, the Range (L1210 [27]) was 13 and the Weight change (Mus musculus [28]) was 3. The Range (L1210 [29]) was 21, the Average weight (Mus musculus [30]) was 21.9 and the Range (L1210 [31]) was 16. For the same compound, the T/C (L1210 [32]) was 12, the T/C (L1210 [33]) was 17 and the ILS at 40 mg/kg (L1210 [34]) was 88%.
